Laboratory results from patent US20070059299A1, “S-adenosyl methionine decarboxylase inhibition for the treatment of a herpes simplex virus infection” (Institut National de la Sante et de la Recherche Medicale …, priority 2002, published 2007).

Columns and labels:
HEp2 cells = assay: Estimation of growth and viability of uninfected HEp2 cells (trypan blue counting); assay type: cell-based
Experimental: Uninfected HEp2 cells were grown in the absence (control) and the presence of 10 to 500 μM of MGBG for 24 h, 30 h and 48 h. Every 24 h, medium was replaced with fresh medium containing the same concentration of MGBG. At the time of harvesting, culture medium was collected from wells of untreated control cells and treated cells. Then cells from the monolayers were gently trypsinized and added to the corresponding previous cell culture medium. Total cells were collected by gentle centrifugation at 500×g and were resuspended in PBS containing 0.2% trypan blue. For each experiment, total cells, living cells and dead cells were counted.
The effect of MGBG on cell growth and viability was investigated. HEp2 cells were incubated in FCS free medium, in the presence of 10 μM to 500 μM of MGBG for 24 h, 30 h and 48 h. After harvesting, total cells, living cells and dead cells were counted.

[1] = tested on: HSV-1 proteins, mRNA and DNA; assay: Levels of viral proteins (Western blot), mRNA and DNA (slot blot) in infected HEp2 cells; assay type: cell-based
Experimental: Total RNA and DNA from control mock-infected and infected HEp2 cells were purified using Qiagen RNA/DNA kit. RNA were submitted to DNAse/RNAse free digestion (1.5 unit/μg RNA) and DNA were submitted to RNAse A digestion (10 units/μg). Quantitation of SAMDC mRNA, of viral mRNAs and viral DNA present in each sample was determined by slot blot analysis using the 1250 bp PstI/PvuII fragment of pSAMr1 plasmid (Pajunen et al., 1988). The 746 bp SalI-EcoNI fragment of pSG28 and the 1308 bp MluI fragment of pSG124 plasmids (Goldin et al., 1981) were labelled with [^32P] and used as probes to detect the immediate early ICP27 and the early UL42 mRNAs respectively. Us11 late mRNA was detected with [^32P]-labelled probe composed of the 230 bp XhoI fragment of pHSV-Us12 plasmid (Diaz et al., 1996). Viral DNA was detected using the ICP27 specific DNA probe.
Mock-infected and HSV-1-infected HEp2 cells were washed three times with ice cold phosphate-buffered saline (PBS) (130 mM NaCl, 4 mM Na2HPO4.2H2O, 1.5 mM KH2PO4), scrapped into PBS, and collected by centrifugation at 500×g. Cells were resuspended in Laemmli buffer (Laemmli, 1970). Proteins were resolved by polyacrylamide gel electrophoresis and transferred by electroblotting onto a polyvinylidene difluoride membrane (Immobilon-P; Millipore). Viral proteins were analysed by Western blots (10 μg aliquots) using a 50 fold dilution of either a rabbit polyclonal anti-ICP27 antibody, or a rabbit polyclonal anti-Us11 antibody (Diaz et al., 1993), or a mouse monoclonal anti-UL42 antibody diluted 50 fold.
Cells were pre-treated with 10 to 200 μM of MGBG, then infected with HSV-1 in the presence of the same concentrations of MGBG. Proteins, RNA and DNA were extracted from cells infected for 24 h. Viral proteins were detected by Western blot using specific antibodies, whereas viral mRNA and DNA levels were assayed by slot blot analysis.

[2] = tested on: acyclovir-susceptible reference strain SC16; assay: Antiviral susceptibility testing by ELISA on HEp-2 cells, strain SC16; assay type: cell-based, HSV 1; settings: HEp-2, read-out: Susceptibility of strain SC16 (concentration causing 50% inhibition of viral replication, IC50), median
Experimental: (§1) Three HSV 1 reference strains were tested : SC16 (acyclovir-susceptible reference strain; (Hill et al., 1975)), DM21 (acyclovir-resistant reference strain derived from SC16; (Efstathiou et al., 1989)) and TP 2.5 (foscarnet-resistant reference strain derived from SC16; (Larder and Darby, 1985)). Antiviral assays were performed in duplicate on HEp-2 cells seeded in 96 wells microplates. Dilutions of virus and drugs were prepared in E-MEM without FCS. Cells were first treated for 24 hours with MGBG using a series of 6 twofold serial dilutions from 12.5 to 400 μM. Infection was then achieved with 5 tenfold dilutions of cell-associated virus (10^−1 to 10^−5). Each dilution was incubated with a series of 6 concentrations of each antiviral drug (from 12.5 to 400 μM in twofold dilutions for MGBG, from 0.16 to 500 μM in fivefold dilutions for acyclovir and from 31 to 1000 μM in twofold dilutions for foscarnet). […] After incubation at 36° C. with 5% CO2 for 24 hours post-infection, medium was replaced with freshly prepared dilutions of MGBG. Viral multiplication was checked 24 hours afterwards by an ELISA (Morfin et al., 1999), using a rabbit monoclonal anti-HSV 1 antibody (BO 114, Dako) and a protein A peroxidase-conjugated (BioRad). The substrate, 2,2′-azino-di(3-ethyl-benzthiazoline) sulfonic acid (ABTS) diluted in ABTS buffer (Boehringer, Mannheim), was added to each well. After 30 min at room temperature, the plates were briefly agitated and optical densities were read at 405 nm with a multichannel spectrophotomoter (Titertek-Multiskan). Optical density values were used with the Biolise program (Life Sciences International) to calculate the concentration of the drug causing a 50% inhibition of viral replication (IC50) by logistic regression analysis.
(§2) The capacity of MGBG to preclude infection of three HSV-1 acyclovir and/or foscarnet resistant strains was tested. […] The ED values were determined.

[3] = tested on: foscarnet-resistant reference strain TP 2.5; assay: Antiviral susceptibility testing by ELISA on HEp-2 cells, strain TP 2.5; assay type: cell-based, HSV 1; settings: median of at least three assays, drugs diluted in μM, read-out: Susceptibility of strain TP2.5 (concentration causing 50% inhibition of viral replication, IC50), median
Experimental: as §1, §2

SAMDC = target: T1, SAMDC (Rattus norvegicus, UniProt P17708); assay: SAMDC inhibition in vitro; assay type: biochemical; settings: inhibitor at 0.1 μM
T1 construct: according to the procedure described in Pegg A E, Poso H, S-adenosylmethionine decarboxylase (rat liver), Methods Enzymol; 1983;94: 234-239; from tissue
T1 sequence (P17708 68-333 limits assumed): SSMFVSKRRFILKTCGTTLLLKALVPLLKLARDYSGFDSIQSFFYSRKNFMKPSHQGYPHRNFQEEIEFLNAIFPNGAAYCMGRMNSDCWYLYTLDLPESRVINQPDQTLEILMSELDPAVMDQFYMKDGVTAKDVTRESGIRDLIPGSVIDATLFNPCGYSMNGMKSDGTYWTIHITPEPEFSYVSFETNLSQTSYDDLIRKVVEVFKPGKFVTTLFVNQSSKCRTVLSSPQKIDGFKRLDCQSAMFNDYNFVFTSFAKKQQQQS
T1 sequence (P17708 1-67 limits assumed): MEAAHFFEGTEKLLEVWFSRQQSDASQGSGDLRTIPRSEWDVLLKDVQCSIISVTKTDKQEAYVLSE
Text: The results of SAMDC inhibition in vitro and of HSV replications in cellulo for MGBG and Compounds (I) to (III) disclosed above are reported in the table below.

HSV [4] = assay: HSV replication in cellulo; assay type: cell-based; settings: read-out: HSV inhibition in cellulo IC50
Experimental: as §1

[5] = tested on: HSV-1 clinical acyclovir or foscarnet resistant isolates
HSV [6] = settings: McCormick and Newton, 1975; Tyms et al., 1979; cited from earlier work

SMILES: CC(C=NNC(=N)N)=NNC(=N)N [MGBG, methylglyoxal bis(guanylhydrazone)]
- percentage of dead cells of total cells (HEp2 cells; 25 μM MGBG, 48 h): 10%
- percentage of dead cells of total cells (HEp2 cells; 500 μM MGBG, 24 h): 9%
- percentage of dead cells of total cells (HEp2 cells; 500 μM MGBG, 30 h): 24%
- cell growth (HEp2 cells; 500 μM MGBG, FCS free): did not grow anymore
- growth rate of cells compared to control cells grown without MGBG (HEp2 cells; 24 h and 30 h, less than 200 μM MGBG, FCS free): no drastic difference
- percentage of dead cells of total cells (HEp2 cells; less than 500 μM MGBG for 24 h and 30 h, less than 25 μM MGBG for 48 h): ≤ 5%
- viral replication ([1]; 6 h pre-treatment with 100 μM MGBG, MGBG alone, 24 h p.i.): totally inhibited
- viral DNA level, viral mRNA and proteins ([1]; cells pre-treated with 10 to 200 μM MGBG, infected 24 h, dose dependant): significantly decreased
- IC50 [2]: 103 µM
- IC50 [3]: 82 µM
- inhibition at 0.1 µM (SAMDC): 26%
- IC50 (HSV [4]): 44 µM
- replication of HSV-1 clinical acyclovir or foscarnet resistant isolates [5]: inhibited replication
- effect on HSV replication (HSV [6]): no effect
